This passage reports EC50 results from patent publication US12180226B2, “Spirotricycle RIPK1 inhibitors and methods of uses thereof” (Merck Sharp & Dohme LLC, priority 2021, dated 2024).

This experiment deals with RIPK1 (recombinant GST-RIPK1 kinase domain, residues 1-327) (Homo sapiens (Human), UniProt Q13546). Nature of the experiment: RIPK1-ADP-Glo Enzymatic Assay. Format: biochemical. The settings on record: ADP-Glo; 25 nM GST-RIPK1, 300 μM ATP; assay lower limit ~25 nM; read-out: RIPK1 V0 Ec50. The method in brief: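 ADP-Glo luminescence read after 150 min kinase reaction (300 μM ATP, 3 μM dephosphorylated MBP) using 25 nM Sf21-made GST-kinase domain (1-327), preincubated 30 min with compound. HEPES pH 7.3, 1% DMSO; ten-point 1:3 series from 100000 nM, EC50 via four-parameter sigmoidal regression.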

Structures can show the parent of a compound that is named as a salt. Where only a bound is given, the exact number is not on record here.

Sequence of RIPK1 (recombinant GST-RIPK1 kinase domain, residues 1-327) (Q13546 1-327): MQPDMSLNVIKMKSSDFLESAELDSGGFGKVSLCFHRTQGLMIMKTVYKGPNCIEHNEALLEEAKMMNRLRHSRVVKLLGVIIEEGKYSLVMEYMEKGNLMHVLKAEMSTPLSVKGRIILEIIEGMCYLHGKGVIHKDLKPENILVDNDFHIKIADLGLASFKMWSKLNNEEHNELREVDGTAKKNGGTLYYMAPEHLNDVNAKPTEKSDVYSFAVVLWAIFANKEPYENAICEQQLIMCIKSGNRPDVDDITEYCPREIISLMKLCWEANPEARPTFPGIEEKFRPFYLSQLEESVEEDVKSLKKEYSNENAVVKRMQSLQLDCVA

Usually EC50 stands for the concentration giving half of the maximal effect. On to `O=C(c1cccc(C2CC2)c1)N1CCC2(CC1)O[C@@H]1CC[C@@H](c3cc(F)cc(F)c3)N1C2=O` [Example 5.62, (5′S,7a′R)-1-(3-cyclo-propylbenzoyl)-5′-(3,5-difluorophenyl)tetrahydro-3′H-spiro[piperidine-4,2′-pyrrolo[2,1-b]oxazol]-3′-one], for which the EC50 was less than 0.025 µM. In the case of `COc1ccc(F)c(C(=O)N2CCC3(CC2)O[C@@H]2CC[C@@H](c4cccc(F)c4)N2C3=O)c1` [Example 6.131, (5′S,7a′R)-1-(2-fluoro-5-methoxybenzene-1-carbonyl)-5′-(3-fluoro-phenyl)tetrahydro-3′H-spiro[piperidine-4,2′-pyrrolo[2,1-b] [1,3]oxazol]-3′-one], the EC50 is less than 0.025 µM. On to `Cc1nc(N2CCC3(CC2)O[C@@H]2CC[C@@H](c4ccccc4)N2C3=O)ncc1-c1ccnn1C` [Example 21.8, (5′S,7a′R)-1-[4-methyl-5-(1-methyl-1H-pyrazol-5-yl)pyrimidin-2-yl]-5′-phenyltetrahydro-3′H-spiro[piperidine-4,2′-pyrrolo[2,1-b][1,3]oxazol]-3′-one], for which the EC50 is 0.0366 µM.

For the compound `O=C(c1ccccc1)N1CCC2(CC1)C[C@@H]1OC[C@@H](c3ccccc3)N1C2=O` [Example 7.3, (3′R,7a′S)-1-(benzenecarbonyl)-3′-phenyltetrahydro-5′H-spiro[piperidine-4,6′-pyrrolo[2,1-b][1,3]oxazol]-5′-one], the EC50 turned out to be 0.102 µM. In the case of `Cc1ccc(C(=O)N2CCC3(CC2)O[C@@H]2CC[C@@H](c4cc(F)cc(F)c4)N2C3=O)s1` [Example 5.34, (5′S,7a′R)-5′-(3,5-difluoro-phenyl)-1-(5-methylthio-phene-2-carbonyl)tetra-hydro-3′H-spiro[piperidine-4,2′-pyrrolo[2,1-b]oxazol]-3′-one], the EC50 was less than 0.025 µM. As to `O=C(c1cc(F)ccc1F)N1CCC2(O[C@@H]3CC[C@@H](c4ccccc4)N3C2=O)C(F)C1` (stereo partly drawn) [Example 6.111, (5′S,7a′R)-1-(2,5-difluorobenzene-1-carbonyl)-3-fluoro-5′-phenyltetrahydro-3′H-spiro[piperidine-4,2′-pyrrolo[2,1-b][1,3]-oxazol]-3′-one], the EC50 is less than 0.025 µM. Turning to `N#Cc1cc(N2CCC3(CC2)O[C@@H]2CC[C@@H](c4ccccc4)N2C3=O)ccn1` [Example 4.31, 4-[(5′S,7a′R)-3′-oxo-5′-phenyltetrahydro-1H,3′H-spiro[piperidine-4,2′-pyrrolo[2,1-b] [1,3]oxazol]-1-yl]pyridine-2-carbonitrile], the EC50 was less than 0.025 µM. As for `O=C1N2[C@@H](CC[C@H]2c2cc(F)cc(F)c2)OC12CCN(c1ncc(F)c(C3CC3)n1)CC2` [Example 4.65, (5′S,7a′R)-1-(4-cyclopropyl-5-fluoropyrimidin-2-yl)-5′-(3,5-difluorophenyl)tetrahydro-3′H-spiro[piperidine-4,2′-pyrrolo[2,1-b] [1,3]oxazol]-3′-one], the EC50 was found to be 0.164 µM. On to `O=C1N2[C@@H](CC[C@H]2c2cc(F)cc(F)c2)OC12CCN(c1cccc3nccn13)CC2` [Example 13.5, (5′S,7a′R)-5′-(3,5-difluorophenyl)-1-(imidazo[1,2-a]pyridin-5-yl)tetrahydro-3′H-spiro[piperidine-4,2′-pyrrolo[2,1-b]oxazol]-3′-one, TFA salt], for which the EC50 was 0.0984 µM.

Consider `COc1ccc([C@@H]2CC[C@H]3OC4(CCN(C(=O)c5ccccc5)CC4)C(=O)N32)cc1` [Example 17.8, (5′S,7a′R)-1-benzoyl-5′-(4-methoxyphenyl)tetrahydro-3′H-spiro[piperidine-4,2′-pyrrolo[2,1-b]oxazol]-3′-one], for which the EC50 is 0.049 µM. As to `O=C1N2[C@@H](CC[C@H]2c2cc(F)cc(F)c2)OC12CC1CCC(C2)N1c1ccnc2c(F)cnn12` (stereo partly drawn) [Example 4.254, (5′S,7a′R)-5′-(3,5-difluorophenyl)-8-(3-fluoropyrazolo[1,5-a]pyrimidin-7-yl)tetrahydro-3′H-spiro[8-azabicyclo[3.2.1]octane-3,2′-pyrrolo[2,1-b] [1,3]oxazol]-3′-one], the EC50 amounted to 0.126 µM. Turning to `COC(=O)c1cnc(N2CCC3(CC2)O[C@@H]2CC[C@@H](c4ccccc4)N2C3=O)nc1C` [Example 4.189, methyl 4-methyl-2-[(5′S,7a′R)-3′-oxo-5′-phenyltetrahydro-1H,3′H-spiro[piperidine-4,2′-pyrrolo[2,1-b] [1,3]oxazol]-1-yl]pyrimidine-5-carboxylate], the EC50 stood at 0.0254 µM.

Regarding `O=C(c1cnsc1)N1CCC2(CC1)O[C@@H]1CC[C@@H](c3cc(F)cc(F)c3)N1C2=O` [Example 5.51, (5′S,7a′R)-5′-(3,5-difluoro-phenyl)-1-(isothiazole-4-carbonyl)tetrahydro-3′H-spiro[piperidine-4,2′-pyrrolo[2,1-b]oxazol]-3′-one], the EC50 turned out to be 0.0483 µM. As to `N#Cc1ccc(N2CCC3(CC2)O[C@@H]2CC[C@@H](c4ccccc4)N2C3=O)n2ncc(C#N)c12` [Example 4.178, 7-[(5′S,7a′R)-3′-oxo-5′-phenyltetrahydro-1H,3′H-spiro[piperidine-4,2′-pyrrolo[2,1-b] [1,3]oxazol]-1-yl]pyrazolo[1,5-a] pyridine-3,4-dicarbonitrile], the EC50 is less than 0.025 µM. Next, `N#Cc1cnc(N2CCC3(CC2)O[C@@H]2CC[C@@H](c4ccccc4)N2C3=O)cc1OC(F)F` [Example 4.206, 4-(difluoromethoxy)-6-[(5′S,7a′R)-3′-oxo-5′-phenyltetrahydro-1H,3′H-spiro[piperidine-4,2′-pyrrolo[2,1-b] [1,3]oxazol]-1-yl]pyridine-3-carbonitrile]: less than 0.025 µM; `O=C(c1cccc(F)c1)N1CCC2(CC1)O[C@@H]1CC[C@@H](c3cc(F)cc(F)c3)N1C2=O` [Example 7.5, (5′S,7a′R)-5′-(3,5-difluorophenyl)-1-(3-fluorobenzene-1-carbonyl)tetrahydro-3′H-spiro[piperidine-4,2′-pyrrolo[2,1-b][1,3]oxazol]-3′-one]: less than 0.025 µM; `Cc1ncc([C@@H]2CC[C@H]3OC4(CCN(c5ccnc6c(F)cnn56)CC4F)C(=O)N32)cc1F` (stereo partly drawn) [Example 4.130, (5′S,7a′R)-3-fluoro-5′-(5-fluoro-6-methylpyridin-3-yl)-1-(3-fluoropyrazolo[1,5-a]pyrimidin-7-yl)tetrahydro-3′H-spiro[piperidine-4,2′-pyrrolo[2,1-b] [1,3]oxazol]-3′-one]: less than 0.025 µM. Next, `COCCN1Cc2nc(N3CCC4(CC3)O[C@@H]3CC[C@@H](c5ccccc5)N3C4=O)ccc2C1=O` [Example 4.191, (5′S,7a′R)-1-[6-(2-methoxyethyl)-5-oxo-6,7-dihydro-5H-pyrrolo[3,4-b]pyridin-2-yl]-5′-phenyltetrahydro-3′H-spiro[piperidine-4,2′-pyrrolo[2,1-b] [1,3]oxazol]-3′-one]: 0.053 µM; `CCOc1cccc(C(=O)N2CCC3(CC2)O[C@@H]2CC[C@@H](c4cccc(F)c4)N2C3=O)c1` [Example 6.121, (5′S,7a′R)-1-(3-ethoxy-benzene-1-carbonyl)-5′-(3-fluorophenyl)-tetrahydro-3′H-spiro [piperidine-4,2′-pyrrolo[2,1-b][1,3]oxazol]-3′-one]: less than 0.025 µM. In the case of `O=C1N2[C@@H](CC[C@H]2c2ccccc2)OC12CCN(c1cccc3ncnn13)CC2F` (single isomer, unassigned) [Example 13.17, (3[R or S], 4[S or R], 5′S,7a′R)-1-([1,2,4]triazolo[1,5-a]pyridin-5-yl)-3-fluoro-5′-phenyltetrahydro-3′H-spiro[piperidine-4,2′-pyrrolo[2,1-b]oxazol]-3′-one, TFA salt], the EC50 was less than 0.025 µM. Next, `O=C(c1ccsc1-c1ncccn1)N1CCC2(CC1)O[C@@H]1CC[C@@H](c3cc(F)cc(F)c3)N1C2=O` [Example 6.36, (5′S,7a′R)-5′-(3,5-difluorophenyl)-1-[2-(pyrimidin-2-yl)thio-phene-3-carbonyl] tetrahydro-3′H-spiro [piperidine-4,2′-pyrrolo[2,1-b][1,3]oxazol]-3′-one]: 0.851 µM. In the case of `O=C1N2[C@@H](CC[C@H]2c2ccccc2)OC12CCN(c1ncc(-c3ncco3)c(C(F)F)n1)CC2` [Example 21.3, (5′S,7a′R)-1-[4-(difluoromethyl)-5-(1,3-oxazol-2-yl)pyrimidin-2-yl]-5′-phenyltetrahydro-3′H-spiro[piperidine-4,2′-pyrrolo[2,1-b][1,3]oxazol]-3′-one], the EC50 is less than 0.025 µM.

As to `O=C1N2[C@@H](CC[C@H]2c2cc(F)cc(F)c2)OC12CCN(c1nccc3nccn13)CC2` [Example 4.82, (5′S,7a′R)-5′-(3,5-difluorophenyl)-1-(imidazo[1,2-c]pyrimidin-5-yl)tetrahydro-3′H-spiro[piperidine-4,2′-pyrrolo[2,1-b]oxazol]-3′-one, TFA salt], the EC50 amounted to 0.025 µM. Next, `CC1CN(c2cccc3ncnn23)CCC12O[C@@H]1CC[C@@H](c3ccccc3)N1C2=O` (stereo partly drawn) [Example 4.245, (4R,5′S,7a′R)-3-methyl-5′-phenyl-1-([1,2,4]triazolo[1,5-a]pyridin-5-yl)tetrahydro-3′H-spiro[piperidine-4,2′-pyrrolo[2,1-b] [1,3]oxazol]-3′-one]: less than 0.025 µM; `O=C1N2[C@@H](CC[C@H]2c2ccccc2)OC12CCN(c1ccnc3c(F)cnn13)CC2F` (single isomer, unassigned) [Example 4.92, (3[S or R],4[R or S], 5′S,7a′R)-3-fluoro-1-(3-fluoropyrazolo[1,5-a]pyrimidin-7-yl)-5′-phenyltetrahydro-3′H-spiro[piperidine-4,2′-pyrrolo[2,1-b]oxazol]-3′-one, TFA salt]: less than 0.025 µM.

Take `O=C1N2[C@@H](CC[C@H]2c2ccccc2)OC12CCN(c1nnc(C(F)(F)F)s1)CC2` [Example 11.27, (5′S,7a′R)-5′-phenyl-1-[5-(trifluoromethyl)-1,3,4-thiadiazol-2-yl]tetrahydro-3′H-spiro[piperidine-4,2′-pyrrolo[2,1-b][1,3]oxazol]-3′-one]: the EC50 came out at 0.757 µM.
